Measurements as given in ChEMBL document CHEMBL6115030, “Systematic All-Hydrocarbon Stapling Analysis for Cecropin A Generates a Potent and Stable Antimicrobial Peptide” (J Med Chem, 2025).
Values after ≈ are worked out from the molar mass of the structure shown. Bridge positions count the residues as written; N and C are the ends. Square brackets hold non-standard residues; d marks the D form. Peptide text beside a SMILES is read from it. S5 = C=CCCC[C@](C)(N)C(=O)O

Tests used:
Type in all cases: functional
Klebsiella pneumoniae = experiment: Antibacterial activity against Klebsiella pneumoniae ATCC 13883 assessed as inhibition of bacterial growth measured after 24 hrs by broth microdilution method
Pseudomonas aeruginosa = experiment: Antibacterial activity against Pseudomonas aeruginosa PAO1 assessed as inhibition of bacterial growth measured after 24 hrs by broth microdilution method
Staphylococcus aureus = experiment: Antibacterial activity against Staphylococcus aureus ATCC 25923 assessed as inhibition of bacterial growth measured after 24 hrs by broth microdilution method

MIC (Klebsiella pneumoniae) | MIC (Pseudomonas aeruginosa) | MIC (Staphylococcus aureus) | Compound
6.25 µM (≈ 25.3 µg/mL) | 100 µM (≈ 405 µg/mL) | 50 µM (≈ 203 µg/mL) | CC[C@H](C)[C@H](NC(=O)CNC(=O)[C@]1(C)CCC/C=C\CCC[C@](C)(NC(=O)CNC(=O)[C@@H](NC(=O)[C@H](CCCCN)NC(=O)[C@H](CCC(=O)O)NC(=O)[C@@H](NC(=O)[C@H](CCCCN)NC(=O)[C@H](CCCCN)NC(=O)[C@H](Cc2ccccc2)NC(=O)[C@H](CC(C)C)NC(=O)[C@H](CCCCN)NC(=O)[C@H](Cc2c[nH]c3ccccc23)NC(=O)[C@H](CCCCN)NC(C)=O)[C@@H](C)CC)C(C)C)C(=O)N[C@@H](CC(N)=O)C(=O)N[C@@H]([C@@H](C)CC)C(=O)N[C@@H](CCCNC(=N)N)C(=O)N1)C(=O)N[C@H](C(=O)N[C@@H](CCCCN)C(=O)N[C@@H](C)C(=O)NCC(=O)N1CCC[C@H]1C(=O)N[C@@H](C)C(=O)N[C@H](C(=O)N[C@@H](C)C(=O)N[C@H](C(=O)N[C@H](C(=O)NCC(=O)N[C@@H](CCC(N)=O)C(=O)N[C@@H](C)C(=O)N[C@H](C(=O)N[C@@H](CCC(N)=O)C(=O)N[C@H](C(=O)N[C@@H](C)C(=O)N[C@@H](CCCCN)C(N)=O)[C@@H](C)CC)[C@@H](C)O)C(C)C)C(C)C)C(C)C)[C@@H](C)CC (Ac-KWKLFKKIEKVG[S5]NIR[S5]GIIKAGPAVAVVGQATQIAK-NH2; staple (Z) 13-17)
> 100 µM | > 100 µM | > 100 µM | CC[C@H](C)[C@H](NC(=O)CNC(=O)[C@H](CC(=O)O)NC(=O)[C@H](CCCNC(=N)N)NC(=O)[C@@H](NC(=O)[C@H](CC(N)=O)NC(=O)[C@H](CCC(N)=O)NC(=O)CNC(=O)[C@@H](NC(=O)[C@H](CCCCN)NC(=O)[C@H](CCC(=O)O)NC(=O)[C@@H](NC(=O)[C@H](CCCCN)NC(=O)[C@]1(C)CCC/C=C\CCC[C@](C)(NC(=O)[C@H](CCCCN)NC(C)=O)C(=O)N[C@@H](CCCCN)C(=O)N[C@@H](CC(C)C)C(=O)N[C@@H](Cc2ccccc2)C(=O)N1)[C@@H](C)CC)C(C)C)[C@@H](C)CC)C(=O)N[C@H](C(=O)N[C@@H](CCCCN)C(=O)N[C@@H](C)C(=O)NCC(=O)N1CCC[C@H]1C(=O)N[C@@H](C)C(=O)N[C@H](C(=O)N[C@@H](C)C(=O)N[C@H](C(=O)N[C@H](C(=O)NCC(=O)N[C@@H](CCC(N)=O)C(=O)N[C@@H](C)C(=O)N[C@H](C(=O)N[C@@H](CCC(N)=O)C(=O)N[C@H](C(=O)N[C@@H](C)C(=O)N[C@@H](CCCCN)C(N)=O)[C@@H](C)CC)[C@@H](C)O)C(C)C)C(C)C)C(C)C)[C@@H](C)CC (Ac-K[S5]KLF[S5]KIEKVGQNIRDGIIKAGPAVAVVGQATQIAK-NH2; staple (Z) 2-6)
6.25 µM (≈ 25.4 µg/mL) | > 100 µM | > 100 µM | CC[C@H](C)[C@H](NC(=O)CNC(=O)[C@H](CC(=O)O)NC(=O)[C@H](CCCNC(=N)N)NC(=O)[C@@H](NC(=O)[C@H](CC(N)=O)NC(=O)[C@H](CCC(N)=O)NC(=O)CNC(=O)[C@]1(C)CCC/C=C\CCC[C@](C)(NC(=O)[C@H](CCCCN)NC(=O)[C@H](Cc2ccccc2)NC(=O)[C@H](CC(C)C)NC(=O)[C@H](CCCCN)NC(=O)[C@H](Cc2c[nH]c3ccccc23)NC(=O)[C@H](CCCCN)NC(C)=O)C(=O)N[C@@H]([C@@H](C)CC)C(=O)N[C@@H](CCC(=O)O)C(=O)N[C@@H](CCCCN)C(=O)N1)[C@@H](C)CC)C(=O)N[C@H](C(=O)N[C@@H](CCCCN)C(=O)N[C@@H](C)C(=O)NCC(=O)N1CCC[C@H]1C(=O)N[C@@H](C)C(=O)N[C@H](C(=O)N[C@@H](C)C(=O)N[C@H](C(=O)N[C@H](C(=O)NCC(=O)N[C@@H](CCC(N)=O)C(=O)N[C@@H](C)C(=O)N[C@H](C(=O)N[C@@H](CCC(N)=O)C(=O)N[C@H](C(=O)N[C@@H](C)C(=O)N[C@@H](CCCCN)C(N)=O)[C@@H](C)CC)[C@@H](C)O)C(C)C)C(C)C)C(C)C)[C@@H](C)CC (Ac-KWKLFK[S5]IEK[S5]GQNIRDGIIKAGPAVAVVGQATQIAK-NH2; staple (Z) 7-11)
6.25 µM (≈ 25.4 µg/mL) | > 100 µM | 25 µM (≈ 102 µg/mL) | CC[C@H](C)[C@H](NC(=O)CNC(=O)[C@H](CC(=O)O)NC(=O)[C@H](CCCNC(=N)N)NC(=O)[C@@H](NC(=O)[C@H](CC(N)=O)NC(=O)[C@H](CCC(N)=O)NC(=O)CNC(=O)[C@@H](NC(=O)[C@H](CCCCN)NC(=O)[C@H](CCC(=O)O)NC(=O)[C@]1(C)CCC/C=C\CCC[C@](C)(NC(=O)[C@H](CCCCN)NC(=O)[C@H](Cc2c[nH]c3ccccc23)NC(=O)[C@H](CCCCN)NC(C)=O)C(=O)N[C@@H](Cc2ccccc2)C(=O)N[C@@H](CCCCN)C(=O)N[C@@H](CCCCN)C(=O)N1)C(C)C)[C@@H](C)CC)C(=O)N[C@H](C(=O)N[C@@H](CCCCN)C(=O)N[C@@H](C)C(=O)NCC(=O)N1CCC[C@H]1C(=O)N[C@@H](C)C(=O)N[C@H](C(=O)N[C@@H](C)C(=O)N[C@H](C(=O)N[C@H](C(=O)NCC(=O)N[C@@H](CCC(N)=O)C(=O)N[C@@H](C)C(=O)N[C@H](C(=O)N[C@@H](CCC(N)=O)C(=O)N[C@H](C(=O)N[C@@H](C)C(=O)N[C@@H](CCCCN)C(N)=O)[C@@H](C)CC)[C@@H](C)O)C(C)C)C(C)C)C(C)C)[C@@H](C)CC (Ac-KWK[S5]FKK[S5]EKVGQNIRDGIIKAGPAVAVVGQATQIAK-NH2; staple (Z) 4-8)
> 100 µM | > 100 µM | > 100 µM | CC[C@H](C)[C@H](NC(=O)CNC(=O)[C@H](CC(=O)O)NC(=O)[C@H](CCCNC(=N)N)NC(=O)[C@@H](NC(=O)[C@H](CC(N)=O)NC(=O)[C@H](CCC(N)=O)NC(=O)CNC(=O)[C@@H](NC(=O)[C@H](CCCCN)NC(=O)[C@H](CCC(=O)O)NC(=O)[C@@H](NC(=O)[C@]1(C)CCC/C=C\CCC[C@](C)(NC(=O)[C@H](Cc2c[nH]c3ccccc23)NC(=O)[C@H](CCCCN)NC(C)=O)C(=O)N[C@@H](CC(C)C)C(=O)N[C@@H](Cc2ccccc2)C(=O)N[C@@H](CCCCN)C(=O)N1)[C@@H](C)CC)C(C)C)[C@@H](C)CC)C(=O)N[C@H](C(=O)N[C@@H](CCCCN)C(=O)N[C@@H](C)C(=O)NCC(=O)N1CCC[C@H]1C(=O)N[C@@H](C)C(=O)N[C@H](C(=O)N[C@@H](C)C(=O)N[C@H](C(=O)N[C@H](C(=O)NCC(=O)N[C@@H](CCC(N)=O)C(=O)N[C@@H](C)C(=O)N[C@H](C(=O)N[C@@H](CCC(N)=O)C(=O)N[C@H](C(=O)N[C@@H](C)C(=O)N[C@@H](CCCCN)C(N)=O)[C@@H](C)CC)[C@@H](C)O)C(C)C)C(C)C)C(C)C)[C@@H](C)CC (Ac-KW[S5]LFK[S5]IEKVGQNIRDGIIKAGPAVAVVGQATQIAK-NH2; staple (Z) 3-7)
3.13 µM (≈ 13 µg/mL) | 3.13 µM (≈ 13 µg/mL) | 3.13 µM (≈ 13 µg/mL) | CC[C@H](C)[C@H](NC(=O)[C@H](CCC(N)=O)NC(=O)[C@@H](NC(=O)[C@H](C)NC(=O)[C@H](CCC(N)=O)NC(=O)CNC(=O)[C@@H](NC(=O)[C@@H](NC(=O)[C@H](C)NC(=O)[C@@H](NC(=O)[C@H](C)NC(=O)[C@@H]1CCCN1C(=O)CNC(=O)[C@]1(C)CCC/C=C\CCC[C@](C)(NC(=O)[C@H](CC(=O)O)NC(=O)[C@H](CCCNC(=N)N)NC(=O)[C@@H](NC(=O)[C@H](CC(N)=O)NC(=O)[C@H](CCC(N)=O)NC(=O)CNC(=O)[C@@H](NC(=O)[C@H](CCCCN)NC(=O)[C@H](CCC(=O)O)NC(=O)[C@@H](NC(=O)[C@H](CCCCN)NC(=O)[C@H](CCCCN)NC(=O)[C@H](Cc2ccccc2)NC(=O)[C@H](CC(C)C)NC(=O)[C@H](CCCCN)NC(=O)[C@H](Cc2c[nH]c3ccccc23)NC(=O)[C@H](CCCCN)NC(C)=O)[C@@H](C)CC)C(C)C)[C@@H](C)CC)C(=O)N[C@@H]([C@@H](C)CC)C(=O)N[C@@H]([C@@H](C)CC)C(=O)N[C@@H](CCCCN)C(=O)N1)C(C)C)C(C)C)C(C)C)[C@@H](C)O)C(=O)N[C@@H](C)C(=O)N[C@@H](CCCCN)C(N)=O (Ac-KWKLFKKIEKVGQNIRD[S5]IIK[S5]GPAVAVVGQATQIAK-NH2; staple (Z) 18-22)
